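How tested: cells in 96-well plates exposed to compound for 48 hours at five concentrations. GI50: concentration for 50% inhibition of growth. TGI: total growth inhibition.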 Bounds are passed on as bounds.

What all share (experiment): NCI tumour cell line growth inhibition, 48 h
Assay [1] has as its system M19-MEL melanoma.
In assay [2] the test system is SK-OV-3 ovarian.
Assay [3] has as its system SF-539 CNS.
The test system of assay [4] is HL-60(TB) leukemia.
The test system of assay [5] is SNB-78 CNS.
In assay [6] the test system is MDA-MB-231 breast.
Assay [7] deals with NCI/ADR-RES ovarian.
Assay [8] has as its system HOP-92 NSCLC.
Assay [9] concerns HS 578T breast.
The subject of assay [10] is NCI-H226 lung.
For assay [11], the system named is RPMI-8226 leukemia.
Assay [12] deals with DMS 273 small cell lung.

Take `COc1c(Cl)cc(S(=O)O)cc1Cl`: the TGI in assay [1], in assay [2], in assay [3], in assay [4] and in [5] was over 100 µM in each case.

As for `Fc1ccc(-c2nnc3sc(COc4ccccc4Cl)nn23)cc1Cl`, the GI50 in [6] was 44.5 µM; in assay [7], 40.8 µM; in assay [2], 93.3 µM; in assay [8] it was 30.4 µM; in assay [3], 41.4 µM; in [9], 35.2 µM. Also, the GI50 in [4] was 30.4 µM; in [10], 22.8 µM. Further, the TGI in assay [6] is over 100 µM; in assay [7] it was over 100 µM; in assay [2], over 100 µM; in [8], over 100 µM; in assay [3] it was over 100 µM; in assay [9], 91.6 µM. In addition, the TGI was over 100 µM in assay [4] and 57.1 µM in [10].

Turning to `c1ccc2sc(SCN(C3CCCCC3)C3CCCCC3)nc2c1`, the TGI in assay [6], in [7], in assay [8], in assay [9] and in assay [10] was over 100 µM throughout.

As for `CC(CO)(CO)Nc1ncnc2ccccc12`, the TGI in assay [6], in assay [7], in assay [8], in assay [9] and in assay [10] was over 100 µM each time.

Turning to `Nc1nnc(N)n1NC(=O)C(=O)Nc1ccc([N+](=O)[O-])cc1`, the TGI in assay [1], in assay [2], in [8], in assay [3], in [4] and in [11] was over 100 µM each time. Also, the TGI in assay [12], in [5] and in assay [10] was over 100 µM throughout.

`NC(=O)Nc1cc(O)ccc1N=Nc1ccc(S(=O)(=O)Nc2ccccn2)cc1`: the TGI in assay [1], in assay [2], in assay [8], in [3], in [4] and in assay [11] was over 100 µM in each case. Besides, the TGI in assay [12] and in assay [5] was over 100 µM in each case.

With `COc1cc(O)c2c(c1)C(=O)c1cc(C)cc(O)c1C2=O`, the TGI in assay [1], in [2], in [3], in assay [4], in assay [11] and in assay [5] was over 100 µM in each case. In assay [10], this molecule gave a TGI of over 100 µM.

Values taken from PubChem BioAssay (NCI).
